How the values were obtained:
mean arterial pressure = assay: Mean arterial pressure in anesthetised rats (study B); format: in vivo, rat (male Wistar)
heart rate = assay: Heart rate in anesthetised rats (study B); format: in vivo, rat (male Wistar)
mesenteric arterioles = assay: Intravital microscopy study B: arteriole diameter; format: in vivo, rat (male Wistar); conditions: n=6
mesenteric venules = assay: Intravital microscopy study B: venule diameter; format: in vivo, rat (male Wistar)
[1] = test system: post-capillary venules (<40 µm); assay: Intravital microscopy study B: macromolecular leak of FITC-BSA; format: in vivo, rat (male Wistar); conditions: n=6
[2] = test system: leukocyte rolling in post-capillary venules (<40 µm); assay: Intravital microscopy study B: leukocyte rolling; format: in vivo, rat (male Wistar); conditions: n=6
[3] = test system: cecal ligation and puncture (CLP) model of sepsis; conditions: 0.03 mg kg^-1, rats; improved from approximately 30%; cited from earlier work
Excerpt: (§1) Only one study has previously utilised the selective NOP antagonist [Nphe^1, Arg^14,Lys^15]

[4] = test system: hypothalamic pituitary adrenal stress response; conditions: UFP-101 i.c.v.; cited from earlier work
Excerpt: as §1

plasma TNF-α and IL-1β = conditions: 0.03 mg kg^-1 UFP-101; cited from earlier work
Excerpt: as §1

MAP = conditions: UFP-101 i.c.v.; cited from earlier work
Excerpt: (§2) Further studies likewise reported no differences in MAP between NOP^-/- and wild-type mice. However, our findings of tachycardia are in contrast to Burmeister & Kapusta. […] In ...

[5] = test system: heart rate, renal sympathetic nerve activity, MAP; conditions: 300 pmol UFP-101 into PVN, conscious Sprague-Dawley rats; cited from earlier work
Excerpt: as §2

[6] = test system: rat mesenteric microcirculation; conditions: unpublished data within previous studies; cited from earlier work
Excerpt: Despite this, as part unpublished data within previous studies we also observed vasoconstriction with UFP-101 [9]. Compared to larger blood vessels the mesenteric microcirculation as studied here (<40 µm) receives little neural control. Thu ...

[7] = test system: NOP receptors on rat mesenteric microvascular endothelium; assay: Intravital microscopy study A: FITC-N/OFQ binding in mesenteric microcirculation; format: in vivo, rat (male Wistar); conditions: n=5

lipopolysaccharide [LPS]
Mean arterial pressure, T40 (mean arterial pressure; LPS i.v. -24 h 1 mg kg^-1, -2 h 0.5 mg kg^-1, median (interquartile range), n=6, control 105 (95 to 110), p=0.429): 85 mmHg
Heart rate change with LPS, T40 (heart rate; LPS i.v. -24 h 1 mg kg^-1, -2 h 0.5 mg kg^-1, n=6, p=0.004): significant increase in heart rate
Arteriole diameter change with LPS (mesenteric arterioles; LPS i.v. -24 h and -2 h, p=0.057): diameter changes in arterioles were not significant
Venule diameter, T40, LPS (mesenteric venules; LPS i.v. -24 h and -2 h, median (IQR), n=6, control 19.1 (17.8 to 20.8), p=0.002): 29.1 µm
Macromolecular leak, T40, LPS ([1]; LPS i.v. -24 h and -2 h, % change in interstitial FITC-BSA fluorescence from baseline, median (IQR), control 5.3 (-5.9 to 11.8), p=0.008): 95.3%
Leukocyte rolling, T40, LPS ([2]; LPS i.v. -24 h and -2 h, median (IQR), control 3.0 (0.8 to 3.8), p=0.003): 7.0 per min

[Nphe^1, Arg^14,Lys^15] N/OFQ-NH2 [UFP-101]
Effect on MAP (mean arterial pressure; UFP-101 150 nM kg^-1 i.v. alone (no LPS), n=6): no significant effect on MAP
Effect on LPS-induced hypotension (mean arterial pressure; UFP-101 i.v., LPS rats): no reversal of the tachycardia or mild hypotension induced by LPS
Heart rate, T40 (heart rate; UFP-101 150 nM kg^-1 i.v. alone (no LPS), median (IQR), n=6, control 330 (308 to 330), p=0.04): 375 bpm
Effect on LPS-induced heart rate increase (heart rate; UFP-101 150 nM kg^-1 i.v. in LPS rats, T40, n=6, p=0.004): not altered by the addition of UFP-101
Effect on LPS-induced tachycardia (heart rate; UFP-101 i.v., LPS rats): no reversal of the tachycardia
Arteriole diameter, T40, UFP-101 (mesenteric arterioles; UFP-101 150 nM kg^-1 i.v. alone (no LPS), median (IQR), control 16.2 (10.9 to 17.7), p=0.004, difference also present initially): 7.1 µm
Venule diameter, UFP-101 (mesenteric venules; UFP-101 150 nM kg^-1 i.v. alone (no LPS), T40, median (IQR), n=6, control 19.1 (17.8 to 20.8), p=0.001, difference also present initially): 9.7 µm
Effect on LPS-induced venule vasodilation (mesenteric venules; UFP-101 150 nM kg^-1 i.v., LPS rats): reduced vasodilation of venules in response to LPS
Macromolecular leak, T40, LPS + UFP-101 ([1]; 150nmol.kg^-1 UFP-101 i.v. in LPS rats, median (IQR), not significantly different from controls (p=0.063)): -34.9%
Effect on macromolecular leak, no LPS ([1]; UFP-101 150 nmol kg^-1 i.v. alone, p=0.151): no effect
Leukocyte rolling, T40, LPS + UFP-101 ([2]; 150nmol.kg^-1 UFP-101 i.v. in LPS rats, median (IQR), not significantly different from controls (p=0.117)): 0 per min
Effect on leukocyte rolling, no LPS ([2]; UFP-101 150 nmol kg^-1 i.v. alone, p=0.394): no effect
Survival in CLP, UFP-101 [3]: ~65%
HPA stress response to LPS [4]: reduced the hypothalamic pituitary adrenal stress response to LPS
Plasma TNF-α and IL-1β in CLP (plasma TNF-α and IL-1β): reduced plasma concentrations of TNF-α and IL-1β
Effect on MAP, i.c.v. mice (MAP): no effect on MAP
Heart rate and renal sympathetic nerve activity [5]: increased heart rate and renal sympathetic nerve activity
MAP after PVN injection [5]: non-significant increase in MAP
Vessel constriction [6]: vasoconstriction

CC(C)C[C@H](NC(=O)[C@H](CCCCN)NC(=O)[C@H](CCCNC(=N)N)NC(=O)[C@H](C)NC(=O)[C@H](CO)NC(=O)[C@H](CCCCN)NC(=O)[C@H](CCCNC(=N)N)NC(=O)[C@H](C)NC(=O)CNC(=O)[C@@H](NC(=O)[C@H](Cc1ccccc1)NC(=O)CNC(=O)CNC(=O)[C@@H](N)Cc1ccccc1)[C@@H](C)O)C(=O)N[C@@H](C)C(=O)N[C@@H](CC(N)=O)C(=O)N[C@@H](CCC(N)=O)C(=O)N[C@@H](CCCCNC(=S)Nc1ccc2c(c1)C(=O)OC21c2ccc(O)cc2Oc2cc(O)ccc21)C(N)=O [FITC-N/OFQ, [Lys(FITC)^18]N/OFQ-NH2]
Binding to mesenteric microvascular endothelium ([7]; 200 nM kg^-1 FITC-N/OFQ into mesenteric artery, control rats): bound to specific sites on the endothelium of arterioles
Time course of decay of FITC fluorescence with vs without N/OFQ ([7]; gray level over 60 s, 200 nM kg^-1 FITC-N/OFQ with (T-15) and without (T0) 200 nM.kg^-1 N/OFQ): The time courses were significantly different

From PMC3781147 (PLoS ONE, 2013)
